Experimental data as given in PMC7515950, “Physiologically based pharmacokinetic modeling to assess metabolic drug–drug interaction risks and inform the drug label for fedratinib” (Cancer Chemotherapy and Pharmacology, 2020).
Several values for one entry are separate records, joined by “and”; a condition that tells them apart may be missing. Equal entries are not always repeated. Where two headings read alike, the source gives them in different places.

Tests used:
[1] = Human 14C mass balance and metabolic profiling (BEX12257, MEH0082); type: in vivo; conditions: for fa (fraction of absorbed dose): estimated from mass balance and metabolic profiling, BEX12257 and MEH0082; for CL renal: estimated from BEX12257, MEH0082 with CL/F of 33.3 L/h, read-out: CLR (renal clearance) (converted)
Experimental: The first-order absorption ka value was estimated to be ~0.22 h^-1 based on compartmental modeling of mean PK data obtained from healthy subjects given single doses of 500 mg fedratinib (see Table 1 in Supplemental Material SM 2). The fa value was estimated based on data obtained from the mass balance and metabolic profiling studies conducted in healthy subjects. By combining the estimated excretion percentages of the parent compound in urine, feces, and bile, the unabsorbed dose was estimated to be ~35% and thus fraction of absorption (fa) was estimated to be ~0.65 (see Figure 2 and “Excretion Parameters” subsection).
Following the normalization, excretion percentages of fedratinib were estimated to be ~5% and ~37% of the administered dose in urine and feces, respectively.

[2] = Physicochemical properties (Study QUA-PG-2011-20593); conditions: for pKa: free form is a diprotic base
Source text: The physicochemical properties and blood binding parameters of fedratinib including molecular weight, logP, pKa, fu, and B/P were experimentally measured and listed in Table 1.

OCT1 = target: T1, OCT1 (Homo sapiens, UniProt O15245); assay: OCT1 inhibition, CHO-hOCT1 cells (TRI0013); type: in vitro ADME
T1 construct: expressed in transfected cells; host or cells: CHO^Fi-hOCT1
T1 sequence (O15245 1-554): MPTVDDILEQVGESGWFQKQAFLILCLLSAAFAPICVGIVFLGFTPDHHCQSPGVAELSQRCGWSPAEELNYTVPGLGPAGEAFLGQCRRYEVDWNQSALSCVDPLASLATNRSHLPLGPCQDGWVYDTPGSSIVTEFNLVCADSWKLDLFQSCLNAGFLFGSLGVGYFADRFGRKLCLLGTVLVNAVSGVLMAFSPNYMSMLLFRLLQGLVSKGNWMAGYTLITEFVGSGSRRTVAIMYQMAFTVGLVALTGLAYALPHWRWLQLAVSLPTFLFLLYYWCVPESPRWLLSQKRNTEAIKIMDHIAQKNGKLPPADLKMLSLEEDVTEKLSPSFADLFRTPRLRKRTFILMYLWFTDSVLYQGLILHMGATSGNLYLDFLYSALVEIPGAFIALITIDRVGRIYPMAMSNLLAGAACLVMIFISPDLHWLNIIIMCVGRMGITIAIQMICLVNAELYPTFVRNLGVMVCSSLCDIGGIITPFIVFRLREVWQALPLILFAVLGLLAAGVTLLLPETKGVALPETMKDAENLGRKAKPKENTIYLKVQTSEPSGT
Source text: The reported IC50 values were converted to Ki values using the Cheng-Prusoff equation [10]:
The transporter inhibition parameters (Ki) for fedratinib were derived from the experimentally determined IC50 values using the Cheng-Prusoff equation, i.e., Ki = IC50/(1+[S]/Km) with the substrate concentrations ([S]) reported in the experimental studies and the substrate Km values collected from literature, as summarized in Table 13.

[3] = test system: cryopreserved human hepatocytes; assay: Contribution of metabolic enzymes in cryopreserved human hepatocytes (MIH0888); type: in vitro ADME; conditions: 1 µM fedratinib
CYP2D6 = target: T2, CYP2D6 (Homo sapiens, UniProt P10635); assay: CYP inhibition in human liver microsomes (MIH0887), CYP2D6; type: in vitro ADME; conditions: HLM, apparent Ki, reversible inhibition
T2 construct: from tissue; host or cells: human liver microsomes
T2 sequence (P10635 whole entry): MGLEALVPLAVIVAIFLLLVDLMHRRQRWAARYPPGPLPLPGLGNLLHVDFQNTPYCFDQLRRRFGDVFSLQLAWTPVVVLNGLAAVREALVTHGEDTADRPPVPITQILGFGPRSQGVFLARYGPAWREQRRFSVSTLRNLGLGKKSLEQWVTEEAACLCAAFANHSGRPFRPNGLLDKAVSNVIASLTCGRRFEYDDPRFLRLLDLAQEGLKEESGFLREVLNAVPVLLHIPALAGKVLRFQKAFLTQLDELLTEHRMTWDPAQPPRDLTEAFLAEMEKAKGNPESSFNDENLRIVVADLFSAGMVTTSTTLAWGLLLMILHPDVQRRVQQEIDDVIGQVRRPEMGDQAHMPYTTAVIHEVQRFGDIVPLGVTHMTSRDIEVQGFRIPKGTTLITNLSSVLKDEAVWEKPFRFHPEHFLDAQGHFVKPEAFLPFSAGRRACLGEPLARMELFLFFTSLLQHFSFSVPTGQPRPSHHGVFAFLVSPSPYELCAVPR
Experimental: (§1) The CYP enzyme reverse inhibition and mechanism-based inhibition (MBI) parameters were estimated in the human liver microsome (HLM) incubation in vitro studies. The reported reversible inhibition parameter (i.e., apparent Ki) values for CYP2C8, CYP2C9, and CYP2D6, along with the MBI parameters (i.e., KI or Kapp and kinact) for CYP2C19 and CYP3A4, were supplied to the PBPK DDI model (see Table 2).

[4] = PBPK parameter estimation in Simcyp (retrograde modeling, QGut, Peff, F, Fg, CLAdd); parameters: species or system human; conditions: for CLint,CYP2C19 / CLint,CYP2D6 / CLint,CYP3A4: retrograde modeling, healthy subjects
Source text: Using the retrograde modeling tool provided within Simcyp®, the intrinsic enzyme clearance (CLint) values were optimized by minimizing the differences between the model-predicted and clinically observed dose-normalized AUCinf (see Supplemental Material SM2—Metabolism Parameters), with the fractions of metabolism of CYP3A4 (fmCYP3A4) and additional hepatic enzymes (fmHLM,add) refined by the parameter sensitivity analysis on accumulation ratio for repeated-dose clinical studies (see Supplemental Material SM8). The renal clearance (CLR) and additional systemic clearance (CLadd) were provided as input parameters estimated from the clinical data (see Supplemental Material SM2—Excretion Parameters). The PBPK distribution parameters (including Vss, Vsac, and Q) were directly derived from the compartmental modeling of plasma PK data obtained from healthy subjects administered 500 mg fedratinib single doses, and then provided as input parameters without further modifications (see Supplemental Material SM2—Distribution Parameters).
By default, the QGut is set to be the mean value (i.e., 6.5 L/h) in the PBPK model of fedratinib.
As CYP3A4 is the dominant form of CYP3A in the liver, all metabolic contribution from CYP3A was assigned to CYP3A4 in this PBPK model. The default “Healthy Volunteers” population was used for the retrograde modeling. […] The Fg value required for retrograde modeling was initially set as default 1 and then adjusted to ~0.8 based on model prediction. […] The clearance values derived above for fedratinib in healthy subjects were assumed to be the same for cancer patients including myelofibrosis (MF) patients and patients with refractory solid tumors.
The biliary excretion of unchanged drug accounts for 2.3% of the total intravenous dose in bile-duct cannulated (BDC) rats.

CYP2C19 = target: T3, CYP2C19 (Homo sapiens, UniProt P33261); assay: CYP mechanism-based inhibition in human liver microsomes (MIH0887), CYP2C19; type: in vitro ADME; conditions: HLM
T3 construct: from tissue; host or cells: human liver microsomes
T3 sequence (P33261 whole entry): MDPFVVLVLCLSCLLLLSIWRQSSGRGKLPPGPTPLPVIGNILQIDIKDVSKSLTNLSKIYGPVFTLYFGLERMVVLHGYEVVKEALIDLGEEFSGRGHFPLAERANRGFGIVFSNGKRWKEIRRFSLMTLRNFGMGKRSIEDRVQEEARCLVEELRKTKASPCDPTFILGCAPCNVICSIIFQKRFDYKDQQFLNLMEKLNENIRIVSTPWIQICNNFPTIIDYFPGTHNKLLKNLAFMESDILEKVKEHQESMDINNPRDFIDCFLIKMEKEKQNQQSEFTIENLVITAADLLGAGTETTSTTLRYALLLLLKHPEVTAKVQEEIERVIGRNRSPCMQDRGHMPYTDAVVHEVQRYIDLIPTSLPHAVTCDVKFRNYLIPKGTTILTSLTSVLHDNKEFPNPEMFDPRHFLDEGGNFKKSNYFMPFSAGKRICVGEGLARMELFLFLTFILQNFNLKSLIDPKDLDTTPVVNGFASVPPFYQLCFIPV
Experimental: as §1

[5] = human 14C-mass balance, over 0-192/240h
[6] = normalized by total recovered radioactivity

Cc1cnc(Nc2ccc(OCCN3CCCC3)cc2)nc1Nc1cccc(S(=O)(=O)NC(C)(C)C)c1 [Fedratinib]
unabsorbed dose ([1]; estimated from excretion of parent in urine, feces and bile): ~ 35% | fa (fraction of absorbed dose) [1]: 0.65 | fa (fraction of absorbed dose) ([1]; listed as fedratinib): 0.650 | parent compound in feces, percent of administered dose [1, 5]: 23.3% | parent compound in urine, percent of administered dose [1, 5]: 2.9% | blood plasma ratio ([1]; human, blood and plasma, oral, Study BEX12257, read-out: B/P (blood/plasma concentration ratio)): 0.7 | CL renal ([1]; human, in vivo, oral): ~27.8 mL/min | CL renal ([1]; human, urine, oral): 27.8 mL/min | excretion percentage of fedratinib in feces, normalized [1, 6]: ~ 37% | excretion percentage of fedratinib in urine, normalized [1, 6]: ~ 5% | total percent activity of administered dose ([1]; over 0-192/240h): 62.7% | LogPo:w ([2]; Study QUA-PG-2011-20593): 3.500 | logP ([2]; octanol/water, Study QUA-PG-2011-20593): 3.5 | pKa ([2]; pKa1 (base)): 6.4 | pKa ([2]; pKa2 (base)): 9.6 | Ki (OCT1; from IC50 by Cheng-Prusoff, probe TEA): 5.59 µM | IC50 (OCT1; probe TEA 25 μM): 6.06 µM | hepatic metabolic clearance percentage, CYP2C19 [3]: 17% and ~ 17% | hepatic metabolic clearance percentage, CYP2D6 [3]: 2% and ~ 2% | hepatic metabolic clearance percentage, CYP3A [3]: 63% and ~ 63% | metabolic contribution to hepatic clearance, other liver enzymes [3]: ~ 18% | Ki (CYP2D6): 10.1 µM | clearance ([4]; human, oral, read-out: CLAdd (additional systemic clearance) (converted)): ~11.2 mL/min | biliary excretion percentage assumed in humans ([4]; oral dose, assumed from rat data): ~ 2% | CLint,CYP2C19 [4]: 1.25 mL/min/pmol of isoform | CLint,CYP2D6 [4]: 0.258 mL/min/pmol of isoform | CLint,CYP3A4 [4]: 0.610 mL/min/pmol of isoform | CLint,CYP2C19 ([4]; listed as fedratinib): 1.25 μL/min/pmol of isoform and 1.253 μL/min/pmol of isoform | CLint,CYP2D6 ([4]; listed as fedratinib): 0.258 μL/min/pmol of isoform | CLint,CYP3A4 ([4]; listed as fedratinib): 0.610 μL/min/pmol of isoform | CLpo used for retrograde calculation ([4]; updated so that predicted dose-normalized AUC agrees with observation): 48 L/h | CYP2C19 KI or Kapp (CYP2C19): 112 µM | CYP2C19 KI or Kapp (CYP2C19; listed as fedratinib): 112.000 µM | kinact (CYP2C19; human, human liver microsomes): 0.000558 s⁻¹
